Test: gradient 5% acetonitrile 3 min, to 50% in 2 min, to 85% in 15 min, held 3 min, 100 µL/min
Conditions: column: Zorbax Extend-C18 2.1 x 50 mm; eluents: water / acetonitrile, 0.1% formic acid
Procedure, shortened: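 Retention time was recorded from adduct peaks, which were picked computationally and each inspected manually. Pure standards ran in mixtures of ~100 molecules on HPLC coupled to a quadrupole time-of-flight mass spectrometer, in positive and negative ionization mode, through a Zorbax Extend-C18 column (2.1 × 50 mm, 1.8 μm) at 100 μL/min. Eluents were water and acetonitrile, each with 0.1% formic acid.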

SMILES	RP-LC retention time [s]
CCCN1CCN(c2ccc(NC(=O)C3CCC3)c(C(=O)O)c2)CC1	561
C[C@H](Nc1ncnc2nc[nH]c12)c1cc2cccc(Cl)c2c(=O)n1-c1ccccc1	697
COc1ccccc1CNC(=O)CN1CCc2[nH]c3c(C)c(Cl)ccc3c(=O)c2C1	649
CCn1c(C(=O)NCCN2CCCCC2C)c(N2CCCC2=O)c2cc(OC)ccc21 (centres undefined)	637
CCCn1ccc2sc(C)c(C(=O)NCc3cccc(Br)c3)c2c1=O	998
Cc1ccc(CN2CCC(CNC(=O)c3ccc4c(c3)NC(=O)C3CCCCN43)CC2)cc1 (centres undefined)	638
Cc1nnc(C2CCCCCN2C(=O)c2occc2C)o1 (centres undefined)	718
COc1ccc(C(=O)CC2(O)C(=O)Nc3ccccc32)cc1 (centres undefined)	669
CCN1CCCC1CNc1onc(-c2ccc(Cl)cc2)c1C(=O)OC (centres undefined)	699
O=C(CCC1CCCC1)N1CCN(C(=O)c2cc(-c3ccccn3)n[nH]2)CC1	715
O=C(c1ccsc1)N1CCC2(CC1)NCc1ccccc1-n1ccnc12	588
O=C(C1CCN(c2nc(-c3ccc(Cl)cc3)no2)CC1)N1CCN(c2ncccn2)CC1	968
CC(C)CNC(=O)N1CCCC(c2nn[nH]n2)C1 (centres undefined)	617
CCOc1ccc(-n2ccnc(NC(=O)Nc3cccc(OC)c3)c2=O)cc1	980
Cc1ccc(C)c(-c2cc3c4nnc(CCC(=O)N5CCC(C(N)=O)CC5)n4ccn3n2)c1	669
COC(=O)c1cccc(C(=O)Nc2ccc(Br)cc2F)n1	1000
COc1cccc(C(=O)Nc2cc(-c3ccccn3)no2)c1	788

SMILES	RP-LC retention time [s]
CCOC(=O)c1ccc(NC(=O)Nc2cccs2)cc1	888
COc1ccc(C)cc1NC(=O)Cn1c(=O)cc(-c2nc(C3CC3)no2)c2ccccc21	1050
CCCN(c1ccc(F)cc1)c1nc(C(=O)OCC)nc2ccccc12	1080
CCCNC(=O)c1cc(C)nc2c(Cl)cccc12	753
CCc1ccccc1NC(=O)C1CCN(S(=O)(=O)c2ccc3c(c2)sc(=O)n3CC)CC1	932
NC(=O)C1CCN(C(=O)c2ccc3c(c2)CCN3S(=O)(=O)c2ccc(Cl)cc2)CC1	711
Cc1ccc(CN2CCc3nc(N4CCCC4)ncc3C2)cc1C	640
Cc1cccc(NC(=O)CN2CCc3[nH]c4c(C)c(C)ccc4c(=O)c3C2)c1	626
COc1cccc(S(=O)(=O)N2CCC(CN3CCCC(C)C3)CC2)c1 (centres undefined)	662
CCc1nc2cc(-c3noc(Cc4cccc(C(F)(F)F)c4)n3)ccc2o1	1170
Cc1sc2ccn(CC(C)C)c(=O)c2c1C(=O)NC1CCN(Cc2ccccc2)CC1	658
O=C(Cn1nc2c(Oc3cccc(F)c3)nccn2c1=O)Nc1ccccc1F	815
Cc1cc(N2CCN(C)CC2)nc2ccc(NC(=O)Nc3ccc(F)cc3F)cc12	594
CCn1nc(C)c2ccn(CC(=O)NCc3ccc(Br)cc3)c(=O)c21	797
O=C(Cn1nc2c(cc1=O)CCCCC2)Nc1nc(-c2ccncc2)cs1	620
Cc1nc(-c2csc(S(=O)(=O)N3CCCC(C(=O)N(C)Cc4ccccc4)C3)c2)no1 (centres undefined)	939

Next, values leading:

RP-LC retention time [s]	SMILES
992	CSc1cccc(N2C(=O)C3N=NN(Cc4nc(-c5ccccc5)no4)C3C2=O)c1 (centres undefined)
770	CCOC(=O)c1ccc(NC(=O)c2c(OCC)cc(=O)n3c2CCCC3)cc1
645	COc1ccc(C(C)NC(=O)c2cn3ccc(C)cc3n2)cc1 (centres undefined)
616	COc1ccc(S(=O)(=O)Nc2cc(C)ccn2)cc1
1230	CCc1ccc(NS(=O)(=O)c2cc(-c3cc(C(F)(F)F)on3)sc2C)cc1
613	CCc1ccc(NC(=O)C(=O)NCC(c2ccc3c(c2)OCO3)N2CCOCC2)cc1 (centres undefined)
601	O=C([C@@H]1C[C@H](Oc2cccnc2)CN1C(=O)Cn1c(=O)oc2ccccc21)N1CCCC1
949	COc1ccc(-c2noc(Cn3nc(-c4ccc(C)cc4)ccc3=O)n2)c(OC)c1
626	CC(=O)Nc1ccc(C(=O)NC2CCN(c3cc(-c4ccccc4)[nH]n3)C2)cc1 (centres undefined)
676	O=C(Nc1cc(F)ccc1F)N1CCN(Cc2nc3cccnc3n2-c2ccccc2)CC1
619	Cc1nc(CCNC(=O)C(C)(C)C)no1
709	Cc1ccc(-n2nc(C)c3sc(N(C)CC(=O)N4CCN(c5ccccn5)CC4)nc32)cc1
577	COC(=O)c1c(C)[nH]c(C(=O)N2CCCC(C(=O)NCc3ccccn3)C2)c1C (centres undefined)
779	COc1ccc(OC)c(CNC(=O)Cc2csc3nc(-c4ccccc4)cn23)c1
961	O=c1c2c(CO)c(-c3ccccc3)nn2ccn1Cc1ccccc1Cl
692	CC(C)C(NC(=O)Cc1ccccc1F)C(=O)Nc1nc2ccccc2[nH]1 (centres undefined)
1050	O=S(=O)(Cc1ccccc1)N1CCCC(Cc2noc(-c3ccccc3)n2)C1 (centres undefined)
1010	CCOC(=O)c1nc(NCc2ccccc2Cl)c2c(CC)noc2n1
820	CN(C)S(=O)(=O)c1ccc2c(c1)N(CC(=O)NCc1ccco1)C(=O)C1CCCCN21 (centres undefined)
958	COc1ccc(NC(=O)Cn2nc(C(F)(F)F)c(Br)c2C)cc1OC
1040	CC1(C)CC(=O)c2cn(-c3ccccc3)c(=O)c(C(=O)Nc3ccccc3F)c2C1

RP-LC retention time [s]	SMILES
873	COCCOc1ccc2c(n1)CCN(C(=O)Nc1cc(C)ccc1C)C2
789	CC1(C(=O)NCc2ccccc2)Cn2cnc(C(=O)NCc3ccc(Cl)cc3)c2C(=O)N1C1CC1 (centres undefined)
768	O=C(c1ccco1)N1CCN(c2ccc(=O)n(-c3ccc(Cl)cc3)n2)CC1
1040	Cc1ccc(N2CCN(S(=O)(=O)c3ccc(-c4nnc(C5CC5)o4)o3)CC2)cc1
714	CCc1cc(=O)n(CC(=O)Nc2ccc(F)cc2)c(N2CCOCC2)n1
655	CCN(CC)c1ccc(-c2noc(CN3CCN(c4ncccn4)CC3)n2)cn1
520	Cc1ccc(N2CCC(NC(=O)C3CCCCC3)C2=O)cc1 (centres undefined)
1060	COc1ccc(C2(C(=O)Nc3cc(-c4cccs4)no3)CC2)cc1
775	c1cc2nnc(C3CC3)n2nc1N1CCCC1
821	COC(=O)c1ncn2c1C(=O)N(CCC1=CCCCC1)C(C)(C(=O)NCc1ccccc1)C2 (centres undefined)
629	O=C(C1CCN(c2cncnc2N2CCOCC2)CC1)N1CCN(c2ccccc2)CC1
698	Cc1ccn2cc(-c3ccc(C)c(NS(=O)(=O)c4ccc(Cl)cc4)c3)nc2c1
859	Cc1sc(NC(=O)c2ccccc2Br)nc1-c1ccc2c(c1)NC(=O)CO2
828	CCCc1nc(C2CC(=O)N(c3ccc(OC)cc3)C2)no1 (centres undefined)
715	CCCNC(=O)NC1CCN(c2nc3ccccc3n(C)c2=O)CC1
788	CCN1c2ccc(C)cc2C(=O)NC12CCN(C(=O)c1ccc(C(F)(F)F)cc1)CC2
930	COc1ccc(Cl)cc1NC(=O)Cn1nc2c(Oc3ccccc3C)nccn2c1=O
714	Cc1ccc(-c2nc3ncccn3c2Nc2ccccc2)cc1
763	COc1ccccc1N1CCN(C(=O)c2ccc(=O)n(Cc3ccc(F)cc3)n2)CC1
694	COCCN1CCn2cc(S(=O)(=O)Nc3ccc(F)cc3F)cc2C1=O

From the METLIN SMRT retention time set (Domingo-Almenara et al. 2019)
